In US20240400506A1, “DIROXIMEL FUMARATE PARTICLES HAVING IMPROVED FLOW PROPERTIES AND METHODS OF MAKING SAME” (BIOGEN MA INC., priority 2021, published 2024):
Where a name gives a salt, the structure may show the parent alone.

Assays:
[1] = Particle size distribution (volume diameter D10/D50/D90, span); type: physicochemical; conditions: for Final PSD after ripening D10 / Final PSD after ripening D50 / Final PSD after ripening D90: after ripening at 40, 43 or 48 °C; for D10 (values across lots) / span (values across lots): range over the lots of the example
Method: Particle size is expressed in terms of volume diameter, which is used to provide a dimensional description of particles which are non-spherical. “Volume diameter” refers to the diameter of a sphere with equal volume of the non-spherical particle. Particle size can be measured according to methods well known in the art, including a laser diffraction technique that correlates light scattering to particle volume on which effective length or effective diameter is calculated.
Particle size distribution is expressed in terms of D50, D10, D90 and span. “Span” is a measure for particle size distribution. It is calculated according to the following equation: […]
“D50”, also known as the median diameter, corresponds to the value under which 50% of the particles has a lower volume diameter. “D90” corresponds to the value under which 90% of the particles has a lower volume diameter. “D10” corresponds to the value under which 10% of the particles has a lower volume diameter.

[2] = Ring shear test: flow function coefficient and cohesion (Jenike-Johanson RST-XS, ASTM D6773-16); type: physicochemical; conditions: neat particles; for average cohesion: four lots (FIG. 3); for average FFc (flow function coefficient): four lots, pre-load 3 kPa (FIG. 2)
Description: “Flow function”, “flow function coefficient”, or FFc is a parameter commonly used to rank the flowability of a particulate sample, which could be a sample of neat API particles or a blend containing API particles plus additives. • Powder flowability is ranked as follows: • FFc<1 not flowing • 1<FFc<2 very cohesive • 2<FFc<4 Cohesive • 4<FFc<10 easy flowing • FFc>10 free flowing The measurement of FFc and Cohesion outlined below follows the procedures described in ASTM D6773-16. […] To test FFc and Cohesion, a particulate sample is added to a commercially available ring shear testing device, such as a Jenike-Johanson RST-XS ring shear tester. Such testing is familiar to the person of ordinary skill in the art. In general, the powder is loaded into an annular trough and a consolidated powder bed is formed. A normal stress (σp) is applied to the consolidated powder bed and the pre-shear stress (ζp) is measured. The normal stress is applied as a vertical load through an annular lid. The shear cell rotates relative to the lid and the torque necessary for shearing is measured. Repeat measurements with a series of values of normal stress are applied. When the measured shear stress values (Y-axis) are plotted as function of applied normal stress values (X-axis), the linear relation between them is called the yield locus. The yield locus line can be used to determine a unique relationship between normal stress and shear stress; this is known as a Mohr circle. The yield locus line represents a tangential line of all Mohr circles. The outer larger radius circle corresponds to pre-shear conditions (σp, ζp) and defines the Major Principal Stress, MPS (σ1). The smaller radius circle defines the Unconfined Yield Stress, UYS (σc). Flow function coefficient or FFc is the ratio of Major Principle Stress (MPS) to the Unconfined Yield Strength (UYS): Cohesion is the propensity for particles within a sample to self-associate or “stick together”. The ring shear tester measures cohesion at the same time that it measure FFc. The intercept of yield locus line at zero normal stress (i.e., where the extrapolation of the yield locus line intercepts the Y axis) is known as powder cohesion, and is expressed in Pascal (Pa) units. Lower cohesion is associated with better powder flowability. Further, cohesion predicts how particulate samples will behave when stored, for example when stored in a silo. […] The flow function coefficient (FFc) was measured as described above to quantify the flow properties of neat diroximel fumarate particles of Example 1 (dry milled) and Example 2 (wet milled and ripened). […]

[3] = final product, wet milled and ripened in IPAC/IPA, 43 °C
[4] = dry milled API, representative commercial lot
[5] = dry milled API, (D90 − D10)/D50
[6] = final PSD after ripening, (D90 − D10)/D50

| median particle size D50, in-process after wet milling ([1]; IPAC/IPA slurry, after 23 volume turnovers, before ripening) | Span ([1]; final product, wet milled and ripened in IPAC/IPA) | D10 [1, 3] | D50 [1, 3] | D90 [1, 3] | D10 [1, 4] | D50 [1, 4] | D90 [1, 4] | Span [1, 5] | Final PSD after ripening D10 [1] | Final PSD after ripening D50 [1] | Final PSD after ripening D90 [1] | PSD after wet milling D10 ([1]; before ripening) | PSD after wet milling D50 ([1]; before ripening) | PSD after wet milling D90 ([1]; before ripening) | Span [1, 6] | average cohesion [2] | average FFc (flow function coefficient) [2] | D10 (values across lots) [1] | span (values across lots) [1] | Structure (SMILES) |
| --- | --- | --- | --- | --- | --- | --- | --- | --- | --- | --- | --- | --- | --- | --- | --- | --- | --- | --- | --- | --- |
|  |  |  |  |  | 17 μm | 96 μm | 347 μm | 3.4 | 37.2 μm | 89.3 μm | 162.5 μm | 11.6 μm | 53.0 μm | 155 μm | 1.4 |  |  |  |  | COC(=O)/C=C/C(=O)OCCN1C(=O)CCC1=O [compound 1, diroximel fumarate] |
|  |  |  |  |  |  |  |  |  |  |  |  |  |  |  |  | 219 Pa | about 4 | 37.2-41.0 μm | 1.4-1.7 | COC(=O)/C=C/C(=O)OCCN1C(=O)CCC1=O [Example 2, diroximel fumarate] |
|  |  |  |  |  |  |  |  |  |  |  |  |  |  |  |  | 270 Pa | less than 4 | 16-18 μm | 2.9-3.4 | COC(=O)/C=C/C(=O)OCCN1C(=O)CCC1=O [Example 1, diroximel fumarate] |

More lines, now with the values behind:

| Structure (SMILES) | median particle size D50, in-process after wet milling ([1]; IPAC/IPA slurry, after 23 volume turnovers, before ripening) | Span ([1]; final product, wet milled and ripened in IPAC/IPA) | D10 [1, 3] | D50 [1, 3] | D90 [1, 3] | D10 [1, 4] | D50 [1, 4] | D90 [1, 4] | Span [1, 5] | Final PSD after ripening D10 [1] | Final PSD after ripening D50 [1] | Final PSD after ripening D90 [1] | PSD after wet milling D10 ([1]; before ripening) | PSD after wet milling D50 ([1]; before ripening) | PSD after wet milling D90 ([1]; before ripening) | Span [1, 6] | average cohesion [2] | average FFc (flow function coefficient) [2] | D10 (values across lots) [1] | span (values across lots) [1] |
| --- | --- | --- | --- | --- | --- | --- | --- | --- | --- | --- | --- | --- | --- | --- | --- | --- | --- | --- | --- | --- |
| COC(=O)/C=C/C(=O)OCCN1C(=O)CCC1=O [Example 6, diroximel fumarate] | 43 microns | 1.4 | 40 μm | 92 μm | 173 μm |  |  |  |  |  |  |  |  |  |  |  |  |  |  |  |
| COC(=O)/C=C/C(=O)OCCN1C(=O)CCC1=O [compound 4, diroximel fumarate] |  |  |  |  |  | 16 μm | 95 μm | 302 μm | 3.0 |  |  |  |  |  |  |  |  |  |  |  |
| COC(=O)/C=C/C(=O)OCCN1C(=O)CCC1=O [compound 2, diroximel fumarate] |  |  |  |  |  | 17 μm | 106 μm | 347 μm | 3.1 | 40.7 μm | 96.1 μm | 204.5 μm | 12.4 μm | 66.3 μm | 179 μm | 1.7 |  |  |  |  |
| COC(=O)/C=C/C(=O)OCCN1C(=O)CCC1=O [compound 3, diroximel fumarate] |  |  |  |  |  | 18 μm | 101 μm | 307 μm | 2.9 | 41.0 μm | 111.9 μm | 222.9 μm | 9.15 μm | 35.2 μm | 116 μm | 1.6 |  |  |  |  |
